The results in this text go back to ChEMBL document CHEMBL1201862, “PubChem BioAssay data set” (2004).

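Each compound was tested at five concentrations against cells in 96-well plates for 48 hours. Here, GI50 denotes the concentration required for 50% inhibition of growth.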 Activity calls are given as the source filed them. Rule as the data show it: active = GI50 up to about 1.1 µM and inactive = higher. Where only a bound is given, the exact number is not on record here.

Common to all, as to experiment: DTP human tumour cell line panel, 48 h
Test [1] concerns OVCAR-8.
Test [2] has as its system NCI-H226.
Test [3] relates to EKVX.
Test [4] deals with OVCAR-5.
The test system of test [5] is KM12.
In test [6] the test system is SN12C.
For test [7], the system named is CAKI-1.
In test [8] the test system is UO-31.
Test [9] has as its system CCRF-CEM.
In test [10] the test system is TK-10.
The subject of test [11] is SNB-75.
Test [12] has as its system SK-MEL-2.
For test [13], the system named is RXF 393.
The subject of test [14] is U-251.
For test [15], the system named is OVCAR-3.
The test system of test [16] is HOP-62.

Take `c1ccc2[nH]c3nc4ccccc4c-3cc2c1`: the GI50 in test [1] is 0.363 µM (active); in [2], 1.02 µM (active); in test [3], 0.395 µM (active); in test [4] it was 1.69 µM (inactive); in test [5], 0.348 µM (active); in test [6], 0.63 µM (active). Besides, the GI50 in test [7] is 0.524 µM (active); in test [8] it was 0.597 µM (active); in [9] it was 0.197 µM (active); in test [10] it was 1.54 µM (inactive); in test [11], 2.1 µM (inactive); in test [12], 0.445 µM (active). For the same compound, the GI50 was 0.457 µM (active) in [13] and 0.454 µM (active) in [14].

Turning to `CCOC(=O)C(NS(=O)(=O)c1ccccc1)(C(F)(F)F)P(=O)(OCC(C)C)OCC(C)C` (centres undefined), the GI50 in [15], in test [1], in test [2], in [3], in test [4] and in test [5] was > 100 µM (inactive) in each case. The GI50 is > 100 µM (inactive) in test [6]; > 100 µM (inactive) in [7]; 98.2 µM (inactive) in test [8]; > 100 µM (inactive) in test [9]; > 100 µM (inactive) in test [10]; > 100 µM (inactive) in [11]. The GI50 in test [16], in test [13] and in [14] was > 100 µM (inactive) throughout.

For the compound `COc1ccc(/C=C2\C[C@H]3[C@@H]4CC=C5C[C@@H](OC(C)=O)CC[C@]5(C)[C@H]4CC[C@]3(C)\C2=N\O)cc1OC`, the GI50 in test [15] was 24.3 µM (inactive); in test [1], 5.71 µM (inactive); in [2], 9.2 µM (inactive); in test [3], 3.01 µM (inactive); in test [4] it was 33.9 µM (inactive); in test [5] it was 9.27 µM (inactive). Moreover, the GI50 in [6] was 15.4 µM (inactive); in test [7], 11.2 µM (inactive); in test [8] it was 4.2 µM (inactive); in [9], 7.5 µM (inactive); in [11] it was > 100 µM (inactive); in test [16] it was 31.7 µM (inactive). Also, the figures for the GI50 in test [12] and in [13] were 20.8 µM (inactive) and 7.4 µM (inactive), respectively.

Regarding `Clc1ccccc1/C=c1\nc(-c2ccccc2)n2c1nc1ccccc12`, the GI50 was > 100 µM (inactive) in test [15]; 31.2 µM (inactive) in test [1]; > 100 µM (inactive) in [2]; 13.4 µM (inactive) in [3]; > 100 µM (inactive) in [4]; > 100 µM (inactive) in test [5]. Moreover, the GI50 in test [6] is > 100 µM (inactive); in test [7], 68.7 µM (inactive); in test [8] it was > 100 µM (inactive); in test [9], > 100 µM (inactive); in test [10], 31.4 µM (inactive); in test [16], 20.8 µM (inactive). Further, the GI50 in test [12] was 45.3 µM (inactive); in test [13] it was 18.2 µM (inactive); in test [14] it was 21.7 µM (inactive).

Take `CN(C)c1cccc(-c2cc(=S)c3cc4c(cc3[nH]2)OCO4)c1`: the GI50 in test [15] was 8.67 µM (inactive); in test [1], 6.43 µM (inactive); in test [2], 5.7 µM (inactive); in [3], 7.62 µM (inactive); in test [4] it was > 64.9 µM (inactive); in test [5], 5.13 µM (inactive). Besides, the GI50 in [6] is 16.4 µM (inactive); in test [7], 11.1 µM (inactive); in test [8], 18.4 µM (inactive); in test [9] it was 4.26 µM (inactive); in [10], > 77.4 µM (inactive); in [16], > 27.5 µM (inactive). The GI50 was 24.4 µM (inactive) in test [12], 4.83 µM (inactive) in [13] and > 20.7 µM (inactive) in [14].

Consider `CCCC(=O)NC(Nc1ccc(F)cc1)(C(F)(F)F)C(F)(F)F`, for which the GI50 was > 100 µM (inactive) in test [15]; 24.1 µM (inactive) in test [1]; > 100 µM (inactive) in test [2]; > 100 µM (inactive) in test [3]; > 100 µM (inactive) in [4]; 2.49 µM (inactive) in test [5]. The GI50 in test [6] was > 100 µM (inactive); in test [7], > 100 µM (inactive); in test [8], 9.48 µM (inactive); in [10], > 43.7 µM (inactive); in test [11], > 100 µM (inactive); in test [16], > 100 µM (inactive). For the same compound, the GI50 in test [12] is 2.25 µM (inactive); in test [13], > 100 µM (inactive); in test [14] it was > 100 µM (inactive).

Regarding `CN1N=C(c2ccncc2)OC1c1ccc(Cl)c(Cl)c1` (centres undefined), the GI50 in test [15] is 72.4 µM (inactive); in [1], > 100 µM (inactive); in test [2], > 100 µM (inactive); in [3] it was > 100 µM (inactive); in test [4], > 100 µM (inactive); in test [5], > 100 µM (inactive). Besides, the GI50 was > 100 µM (inactive) in test [6]; > 100 µM (inactive) in test [7]; > 100 µM (inactive) in test [8]; 71.6 µM (inactive) in [9]; > 100 µM (inactive) in test [10]; > 100 µM (inactive) in [16]. Besides, the values for the GI50 in test [12], in [13] and in test [14] were > 100 µM (inactive), 74.1 µM (inactive) and > 100 µM (inactive), respectively.

As to `COc1cc(S(=O)(=O)Nc2nc(-c3ccc(N4C(=O)C(CC(=O)O)SC4c4ccccc4O)cc3)cs2)ccc1Cl` (centres undefined), the GI50 is 55.7 µM (inactive) in test [15]; 62.8 µM (inactive) in [1]; 61.4 µM (inactive) in [2]; > 100 µM (inactive) in test [4]; 78.7 µM (inactive) in test [5]; > 100 µM (inactive) in test [6]. Further, the GI50 in [7] was > 100 µM (inactive); in [8], > 100 µM (inactive); in [10] it was > 100 µM (inactive); in test [11], > 100 µM (inactive); in test [16] it was 90.4 µM (inactive); in test [12] it was > 100 µM (inactive). Moreover, the GI50 in [13] was 61.2 µM (inactive); in [14], 45.8 µM (inactive).

Turning to `CC(=O)Nc1nnc(S(=O)(=O)NC(=S)Nc2ccc(Cl)cc2)s1`, the GI50 in test [15], in test [1], in test [3], in [4], in [5] and in test [6] was > 100 µM (inactive) in each case. Also, the GI50 in test [7], in test [8], in test [9], in [10], in [11] and in test [16] was > 100 µM (inactive) throughout. Also, the GI50 in test [12], in test [13] and in test [14] was > 100 µM (inactive) throughout.

For the compound `O=c1c2cc([N+](=O)[O-])ccc2n2n1Cc1ccccc1C2`, the GI50 in test [15] is > 100 µM (inactive); in test [1], > 100 µM (inactive); in [2] it was > 100 µM (inactive); in test [3], 31.5 µM (inactive); in test [5], > 100 µM (inactive); in test [6] it was > 100 µM (inactive). In addition, the GI50 in test [7] is 75 µM (inactive); in test [8] it was 53.3 µM (inactive); in [9] it was > 100 µM (inactive); in test [10] it was > 100 µM (inactive); in test [11] it was > 100 µM (inactive); in [16], > 100 µM (inactive). Moreover, the GI50 in [13] and in test [14] was > 100 µM (inactive) each time.

Take `CN(C)CCOC1(Cc2ccc(Cl)cc2Cl)CCC(C(C)(C)C)CC1` (centres undefined): the GI50 is 2.42 µM (inactive) in test [15]; 1.63 µM (inactive) in test [1]; 1.86 µM (inactive) in test [4]; 1.72 µM (inactive) in test [5]; 1.73 µM (inactive) in test [6]; 15.9 µM (inactive) in [7]. Besides, the GI50 in [9] is 1.88 µM (inactive); in [10] it was 1.26 µM (inactive); in [11], 4.27 µM (inactive); in test [16] it was 1.84 µM (inactive); in test [12], 1.16 µM (inactive); in [13] it was 1.97 µM (inactive). In addition, the GI50 in test [14] is 1.88 µM (inactive).

As to `C#C[C@]1(O)[C@@H](CO)O[C@@H](n2ccc(N)nc2=O)[C@@H]1O`, the concentration for 50% growth inhibition (GI50) is 0.132 µM (active) in [15]; < 0.0121 µM (active) in test [1]; 0.0308 µM (active) in [2]; 0.173 µM (active) in test [3]; 0.209 µM (active) in [4]; < 0.0127 µM (active) in test [5]. In addition, the GI50 was < 0.01 µM (active) in [6]; < 0.01 µM (active) in test [7]; 0.0119 µM (active) in test [8]; < 0.0109 µM (active) in test [9]; 0.0224 µM (active) in test [10]; 0.0327 µM (active) in [11]. The values for the 50% growth inhibitory concentration (GI50) in test [12], in test [13] and in test [14] were 0.0435 µM (active), 0.0581 µM (active) and 0.0263 µM (active), respectively.

In the case of `CC(CC(C)(C)[N+](C)(C)C)[N+](C)(C)C` (centres undefined), the GI50 in test [15], in test [1], in test [2], in test [3], in test [4] and in test [5] was > 100 µM (inactive) in each case. The GI50 was > 100 µM (inactive) in test [6]; > 100 µM (inactive) in test [7]; > 100 µM (inactive) in [8]; > 100 µM (inactive) in test [9]; > 100 µM (inactive) in test [10]; 88.9 µM (inactive) in test [11]. In addition, the GI50 in [16], in test [13] and in [14] was > 100 µM (inactive) each time.
